Patent US20070160725A1, “Use of extracts and compounds of allium-genus plants as preservatives in the food and agri-food industries” (MOUSALA, S., L., priority 2004, published 2007)

Experiments:
[1] = test system: Listeria monocytogenes, ATCC 15313; experiment: agar diffusion, inhibition halo; type: cell-based
Description: (§1) In order to evaluate the antimicrobial activity the agar diffusion technique with cellulose discs of 6 mm in diameter impregnated with the different active ingredient testing doses was used.
(§2) Antibacterial capacity was assessed against suspensions of 10^6 cells/ml, prepared from pure young cultures of each one of the strains to be tested. The culture medium used was Müller-Hinton medium (Merck).
(§3) After incubating the culture dishes inoculated with the different organisms at the corresponding temperatures, the microbial inhibition halos that appeared were measured, and said measurement includes the 6 mm diameter of the cellulose discs.

[2] = test system: Escherichia coli, CECT 515; experiment: agar diffusion, inhibition halo; type: cell-based
Description: as §1, §2, §3

[3] = test system: Bacillus cereus, CECT 1178; experiment: agar diffusion, inhibition halo; type: cell-based
Description: as §1, §2, §3

[4] = test system: Bacillus megaterium, ATCC 33085; experiment: agar diffusion, inhibition halo; type: cell-based
Description: as §1, §2, §3

[5] = test system: Micrococcus luteus, isolated from a spiced sausage; experiment: agar diffusion, inhibition halo; type: cell-based
Description: as §1, §2, §3

Total mesophilic aerobes = experiment: microbiological quality of treated hamburgers and fresh sausage: total mesophilic aerobe count
Description: (§4) The tests were conducted on meat products such as hamburgers and fresh sausage at different doses, with and without the usual preservatives (sulfites).
(§5) Each sample is prepared in quintuplicate and microbiological quality control over time is conducted, a triplicate of each sample being performed.
The method used to determine the number of germs per gram was the dish count number, starting from serial decimal dilutions of the sample and using the surface seeding technique.
The culture medium used was nutrient agar (Merck PCA) prepared on Petri dishes on which, from the serial decimal dilutions of the sample (from −1 . . . to −6 in Merck triptone soy broth or TSB), 0.1 mL of each one of the dilutions was transferred.
Dish incubation temperature was 31±1° C.
The final result is expressed as the total microorganism count per gram of sample (said count is performed in the dilutions in which between 30-300 colonies/dish are detected).
(§6) Two different raw meat products (sausages and hamburgers) treated with different allicin doses are prepared. • The used testing doses were: 25, 50 and 100 ppm.
(§7) Five samples of each product (hamburger and sausage) are prepared, each one of them being analyzed in triplicate.
(§8) The microbiological parameters analyzed were as follows: • Total mesophilic aerobes • Coliforms • Escherichia coli • Salmonella (presence/absence in 25 g) • Said parameters were analyzed at different times: • 0 days • 4 days • 7 days • The sample references resulted as follows: […]

Salmonella = experiment: microbiological quality of treated hamburgers and fresh sausage: Salmonella study
Description: as §4, §5
The systematic testing used consisted of three steps: • a) Pre-enrichment in non-selective liquid medium. • b) Enrichment in selective liquid medium. • c) Differential isolation on selective solid means. a) Non-Selective Pre-Enrichment
The medium of choice is buffered peptone water.
25 g of the product to be analyzed are aseptically weighed and diluted in 225 mL of buffered peptone water to obtain a 1:10 dilution. It is mixed well and taken to be incubated at 37° C. for 16-20 hours.
The pre-enrichment culture is stirred and 10 mL thereof are taken with a sterile pipette, seeding it onto 100 mL of selenite-cysteine broth (Merck), incubating it at 37° C. for 18-24 hours.
From the culture obtained in the selective liquid medium, selenite-cysteine broth, seeding is performed on the second dish, in duplicate and without overloading the loop, on xylose lysine deoxycholate (XLD, Merck) agar, Rambach agar (Merck), and SS agar (Merck).
All the seeded dishes are incubated in an oven at 37° C. for 24-48 hours.
The test is positive when typical colonies are detected in at least two of the four mediums, which are confirmed with supplementary biochemical tests.
as §6, §7, §8

[6] = test system: Candida magnoliae, isolated from cheese; experiment: agar diffusion, inhibition halo; type: cell-based
Description: as §1
(§9) Antifungal capacity was assessed against suspensions of […], harvested from pure cultures of the selected molds and against suspensions of 10^7 cells/ml for the case of yeasts. The culture medium used was the 2% Sabouraud-glucose medium (Merck).
as §3

[7] = test system: Candida krusei, isolated from cheese; experiment: agar diffusion, inhibition halo; type: cell-based
Description: as §1, §9, §3

[8] = test system: Saccharomyces cerevisiae, CECT 1324; experiment: agar diffusion, inhibition halo; type: cell-based
Description: as §1, §9, §3

[9] = test system: Aspergillus terreus, isolated from the environment of the cheese maturation chamber; experiment: agar diffusion, inhibition halo; type: cell-based
Description: as §1, §9, §3

[10] = test system: Candida parapsilosis, isolated from cheese; experiment: agar diffusion, inhibition halo; type: cell-based
Description: as §1, §9, §3

[11] = test system: Penicillium sp, isolated from cheese; experiment: agar diffusion, inhibition halo; type: cell-based
Description: as §1, §9, §3

[12] = test system: Aspergillus niger, CECT 2700; experiment: agar diffusion, inhibition halo; type: cell-based
Description: as §1, §9, §3

[13] = hamburger, 25 ppm of allicin (H-1), t = 0 days
[14] = hamburger, 25 ppm of allicin (H-1), t = 4 days
[15] = hamburger, 50 ppm of allicin (H-2), t = 0 days
[16] = hamburger, 50 ppm of allicin (H-2), t = 4 days
[17] = hamburger, 100 ppm of allicin (H-3), t = 0 days
[18] = hamburger, 100 ppm of allicin (H-3), t = 4 days
[19] = sausage, 25 ppm of allicin (S-1), t = 0 days
[20] = sausage, 25 ppm of allicin (S-1), t = 4 days
[21] = sausage, 50 ppm of allicin (S-2), t = 0 days
[22] = sausage, 50 ppm of allicin (S-2), t = 4 days
[23] = sausage, 100 ppm of allicin (S-3), t = 0 days
[24] = sausage, 100 ppm of allicin (S-3), t = 4 days

Work on `C=CCS[S+]([O-])CC=C` (stereo not shown) [Allicin, allyl allylthiosulfinate] yielded an inhibition halo diameter ([1]; 25 ppm) of 18 mm, an inhibition halo diameter ([1]; 50 ppm) of 24 mm and an inhibition halo diameter ([1]; 100 ppm) of 30 mm. For the same compound, the inhibition halo diameter ([2]; 25 ppm) was 14 mm, the inhibition halo diameter ([2]; 50 ppm) was 17 mm and the inhibition halo diameter ([2]; 100 ppm) was 21 mm. For the same compound, the inhibition halo diameter ([3]; 25 ppm) was 22 mm, the inhibition halo diameter ([3]; 50 ppm) was 29 mm and the inhibition halo diameter ([3]; 100 ppm) was 35 mm. It also gave an inhibition halo diameter ([4]; 25 ppm) of 23 mm, an inhibition halo diameter ([4]; 50 ppm) of 27 mm and an inhibition halo diameter ([4]; 100 ppm) of 34 mm. It also gave an inhibition halo diameter ([5]; 25 ppm) of 19 mm, an inhibition halo diameter ([5]; 50 ppm) of 25 mm and an inhibition halo diameter ([5]; 100 ppm) of 32 mm. The “reduction of total mesophilic aerobes with respect to untreated controls” value (Total mesophilic aerobes; allicin 100 ppm, all sausage samples and hamburgers, maintained from 0 to 4 days) was “reduction of one logarithmic unit”, the Total aerobes (Total mesophilic aerobes; [13]) was 2.17 × 10^6 cfu/g and the Total aerobes (Total mesophilic aerobes; [14]) was 1.56 × 10^8 cfu/g. The Total aerobes (Total mesophilic aerobes; [15]) was 9.01 × 10^5 cfu/g, the Total aerobes (Total mesophilic aerobes; [16]) was 6.23 × 10^7 cfu/g and the Total aerobes (Total mesophilic aerobes; [17]) was 4.08 × 10^5 cfu/g. The Total aerobes (Total mesophilic aerobes; [18]) was 3.17 × 10^7 cfu/g, the Total aerobes (Total mesophilic aerobes; [19]) was 2.24 × 10^5 cfu/g and the Total aerobes (Total mesophilic aerobes; [20]) was 3.08 × 10^6 cfu/g. For the same compound, the Total aerobes (Total mesophilic aerobes; [21]) was 8.99 × 10^4 cfu/g, the Total aerobes (Total mesophilic aerobes; [22]) was 2.72 × 10^6 cfu/g and the Total aerobes (Total mesophilic aerobes; [23]) was 6.06 × 10^4 cfu/g. The Total aerobes (Total mesophilic aerobes; [24]) was 3.10 × 10^5 cfu/g, the Salmonella growth (Salmonella; allicin doses of 50 and 100 ppm) was “able to inhibit Salmonella growth” and the “Salmonella (in 25 g)” value (Salmonella; [13]) was “presence”. For the same compound, the “Salmonella (in 25 g)” value (Salmonella; [14]) was “presence”, the “Salmonella (in 25 g)” value (Salmonella; [15]) was “presence” and the “Salmonella (in 25 g)” value (Salmonella; [16]) was “presence”. For the same compound, the “Salmonella (in 25 g)” value (Salmonella; [17]) was “presence”, the “Salmonella (in 25 g)” value (Salmonella; [18]) was “presence” and the “Salmonella (in 25 g)” value (Salmonella; [19]) was “absence”. For the same compound, the “Salmonella (in 25 g)” value (Salmonella; [20]) was “presence”, the “Salmonella (in 25 g)” value (Salmonella; [21]) was “absence” and the “Salmonella (in 25 g)” value (Salmonella; [22]) was “presence”. For the same compound, the “Salmonella (in 25 g)” value (Salmonella; [23]) was “absence”, the “Salmonella (in 25 g)” value (Salmonella; [24]) was “presence” and the inhibition halo diameter ([6]; 25 ppm) was 22 mm. It also gave an inhibition halo diameter ([6]; 50 ppm) of 30 mm, an inhibition halo diameter ([6]; 100 ppm) of 38 mm and an inhibition halo diameter ([7]; 25 ppm) of 14 mm. The inhibition halo diameter ([7]; 50 ppm) was 18 mm, the inhibition halo diameter ([7]; 100 ppm) was 29 mm and the inhibition halo diameter ([8]; 25 ppm) was 28 mm. It also gave an inhibition halo diameter ([8]; 50 ppm) of 32 mm, an inhibition halo diameter ([8]; 100 ppm) of 44 mm and an inhibition halo diameter ([9]; 25 ppm) of 12 mm. For the same compound, the inhibition halo diameter ([9]; 50 ppm) was 22 mm, the inhibition halo diameter ([9]; 100 ppm) was 25 mm and the inhibition halo diameter ([10]; 50 ppm) was 14 mm. The inhibition halo diameter ([10]; 100 ppm) was 17 mm, the inhibition halo diameter ([11]; 25 ppm) was 22 mm and the inhibition halo diameter ([11]; 50 ppm) was 26 mm. For the same compound, the inhibition halo diameter ([11]; 100 ppm) was 34 mm, the inhibition halo diameter ([12]; 25 ppm) was 10 mm and the inhibition halo diameter ([12]; 50 ppm) was 13 mm. It also gave an inhibition halo diameter ([12]; 100 ppm) of 19 mm.
